# Data: patent US8614179B2, “Antibacterial combination therapy for the treatment of gram positive bacterial infections” (E-Therapeutics PLC, priority 2008, dated 2013)
# Where two headings read alike, the source gives them in different places.
# Key:
# MRSA AND VRE = assay: MIC by agar dilution, MIC50/MIC90/range over MRSA and VRE strain panel; format: cell-based, Staphylococcus aureus; Enterococci
# Description: In example experiments miconazole nitrate, econazole nitrate and clotrimazole were dissolved in DMSO. Colistin, D-cycloserine, fosfomycin and polymixin B were dissolved in water.
# Other solvents that may be used include caster oil, pyridine, and 0.9% saline. For IV administration agents may be solubilised in polyethoxylated caster oil, or cyclodextrins such as sulfobutylether7-βcyclodextrin or hydroxypropyl-β-cyclodextrin and lactic acid. Minimum inhibitory concentrations (MICs) of a range of clinical and control bacterial organisms were measured according to BSAC (British Society for Antimicrobial Chemotherapy) guidelines (Andrews 2001), for single agents. […] MICs were measured by agar dilution. Kill curves were performed in accordance with the methods of Garrison and Nuemiller, 2007. Briefly kill profiles were generated by logarithmically plotting mean CFU/mL data over time. Total logarithmic reductions in bacterial counts were determined by subtracting 24 h CFU/mL values from starting inocula.
# (§1) Stock solutions were prepared at concentrations of 1000 mg/L and 100 mg/L. To determine the MIC of miconazole, the appropriate amount of each stock solution were added to separate Petri dishes give a range of final concentrations (after the addition of 20 mL molten agar): from 0.12 to 32 mg/L. To determine the MICs of miconazole with the specific agent active on a bacterial cell surface, these concentrations of miconazole were used in addition to a fixed sub-inhibitory amount of the agent active on a bacterial cell surface. […] Volumes (20 mL) of cooled molten IST agar (oxoid) was added to each Petri dish and mixed by swirling. After drying, the plates were stored at 4° C. and protected from light. Plates were used on the day of preparation.
# The test organisms were grown overnight in 5 mL IST broth. Using a dilution in 0.9% saline of 1:100, the appropriate agar plates were inoculated using a multipoint inoculator. […]
# The MIC is the minimum amount of an antibiotic at which there is no visible growth of bacteria. Tiny single colonies or faint hazes were not counted as growth. […] The concentration of miconazole, with or without the cell membrane or cell wall active agent, capable of inhibiting the growth of 50% and 90% of the strains tested is reported as the MIC50 and MIC90 respectively. The range of MICs for each group of bacterial strains is also reported.
# [1] = test system: Enterococcus faecium (VRE); assay: microbe, parasite or virus in culture; format: cell-based; settings: read-out: MIC
# Description: (§2) In example experiments miconazole nitrate, econazole nitrate and clotrimazole were dissolved in DMSO. Colistin, D-cycloserine, fosfomycin and polymixin B were dissolved in water. Nisin was suspended at 10 mg/mL in 0.02 M HCl, and the supernatant fraction following centrifugation at 10,000 g for 10 mins was used in the following experiments.
# (§3) Other solvents that may be used include caster oil, pyridine, and 0.9% saline. For IV administration agents may be solubilised in polyethoxylated caster oil, or cyclodextrins such as sulfobutylether7-βcyclodextrin or hydroxypropyl-β-cyclodextrin and lactic acid. Minimum inhibitory concentrations (MICs) of a range of clinical and control bacterial organisms were measured according to BSAC (British Society for Antimicrobial Chemotherapy) guidelines (Andrews 2001), for single agents. The method of determining MICs of imidazole with colistin, D-cycloserine, fosfomycin, polymixin B, or nisin is described briefly as follows. MICs were measured by agar dilution. Kill curves were performed in accordance with the methods of Garrison and Nuemiller, 2007. Briefly kill profiles were generated by logarithmically plotting mean CFU/mL data over time. Total logarithmic reductions in bacterial counts were determined by subtracting 24 h CFU/mL values from starting inocula.
# as §1
# (§4) The test organisms were grown overnight in 5 mL IST broth. Using a dilution in 0.9% saline of 1:100, the appropriate agar plates were inoculated using a multipoint inoculator.
# (§5) Agar plates and microtitre plates were incubated at 37° C. in air for 18-20 hours.
# (§6) The MIC is the minimum amount of an antibiotic at which there is no visible growth of bacteria. Tiny single colonies or faint hazes were not counted as growth. Synergy was reported if the inhibitory effect of the drugs in combination were greater than the sum of the inhibitory effects of each drug singly. The concentration of miconazole, with or without the cell membrane or cell wall active agent, capable of inhibiting the growth of 50% and 90% of the strains tested is reported as the MIC50 and MIC90 respectively. The range of MICs for each group of bacterial strains is also reported.
# MRSA = assay: microbe, parasite or virus in culture; format: cell-based; settings: Staphylococcus aureus
# Description: as §2, §3, §1, §4, §5, §6
# VISA = assay: microbe, parasite or virus in culture; format: cell-based; settings: Staphylococcus aureus, read-out: MIC
# Description: as §2, §3, §1, §4, §5, §6
# [2] = test system: E1 E. gall ATCC 12359 VanC; assay: organism not typed; format: cell-based; settings: Table 4; strain E1 E. gall ATCC 12359 VanC; agents singly or miconazole MIC with 2.5 mg/L nisin
# Description: as §2
# as §3, with “Briefly kill profiles were generated by logarithmically plotting mean CFU/mL data over time.” left out, “inocula. […]” for “inocula.”
# The MIC is the minimum amount of an antibiotic at which there is no visible growth of bacteria. Tiny single colonies or faint hazes were not counted as growth. […]
# [3] = Table 1a, MRSA n = 27, VRE n = 5, miconazole MIC alone or with D-cycloserine fixed at 10 mg/L
# [4] = Table 1b, MRSA n = 27, VRE n = 5, miconazole MIC alone or with fosfomycin fixed at 5 mg/L
# [5] = Table 1c, MRSA n = 21, VRE n = 3, miconazole MIC alone or with colistin fixed at 5 mg/L
# [6] = Table 1e, MRSA n = 21, VRE n = 4, miconazole MIC alone or with nisin fixed at 2.5 mg/L
# [7] = Table 3, MRSA n = 27, VRE n = 5, miconazole alone, 1:1 bacitracin to miconazole, or with bacitracin fixed at 2.5 mg/L
structure (smiles),measurement,setting,value
"Clc1ccc(COC(Cn2ccnc2)c2ccc(Cl)cc2Cl)c(Cl)c1 (stereo not shown) [Miconazole, 1-[2-(2,4-Dichlorophenyl)-2-[(2,4-dichlorophenyl)methoxy]ethyl]-1H-imidazole]",MIC90,"MRSA AND VRE; 24 h, Table 1d, MRSA n = 21, VRE n = 3, miconazole MIC alone or with polymixin B fixed at 20 mg/L",4 µg/mL
same,MIC 50,"MRSA AND VRE; 24 h, Table 1d, MRSA n = 21, VRE n = 3, miconazole MIC alone or with polymixin B fixed at 20 mg/L, read-out: MIC 50",2 µg/mL
same,MIC90,MRSA AND VRE; [3],2 µg/mL
same,MIC Range,MRSA AND VRE; [3],0.5 to 8 µg/mL
same,MIC 50,"MRSA AND VRE; Table 1a, MRSA n = 27, VRE n = 5, miconazole MIC alone or with D-cycloserine fixed at 10 mg/L, read-out: MIC 50",2 µg/mL
same,MIC 50,MRSA AND VRE; [4],2 µg/mL
same,MIC90,MRSA AND VRE; [4],2 µg/mL
same,MIC Range,MRSA AND VRE; [4],0.5 to 8 µg/mL
same,MIC 50,MRSA AND VRE; [5],2 µg/mL
same,MIC90,MRSA AND VRE; [5],4 µg/mL
same,MIC Range,MRSA AND VRE; [5],1 to 6 µg/mL
same,MIC 50,MRSA AND VRE; [6],2 µg/mL
same,MIC90,MRSA AND VRE; [6],4 µg/mL
same,MIC Range,MRSA AND VRE; [6],0.5 to 8 µg/mL
same,MIC 50,MRSA AND VRE; [7],2 µg/mL
same,MIC90,MRSA AND VRE; [7],2 µg/mL
same,MIC Range,MRSA AND VRE; [7],0.5 to 8 µg/mL
same,MIC Range,"MRSA AND VRE; Table 1d, MRSA n = 21, VRE n = 3, miconazole MIC alone or with polymixin B fixed at 20 mg/L",1 to 6 µg/mL
same,MIC,"[1]; ATCC 7171 / VRE, Table 4, strain E. faecium ATCC 7171, agents singly or miconazole MIC with 2.5 mg/L nisin",0.5 µg/mL
same,MIC,"[1]; VRE, Table 4, strain E15 VanAATCC4147 E. faecium, agents singly or miconazole MIC with 2.5 mg/L nisin",2 µg/mL
same,MIC,"[1]; VRE, Table 4, strain E. faecium VanR B145344C LFE, agents singly or miconazole MIC with 2.5 mg/L nisin",4 µg/mL
same,MIC,"MRSA; Table 4, strain LF10, agents singly or miconazole MIC with 2.5 mg/L nisin",2 µg/mL
same,MIC,"MRSA; Table 4, strain LF11, agents singly or miconazole MIC with 2.5 mg/L nisin",2 µg/mL
same,MIC,"MRSA; Table 4, strain LF12, agents singly or miconazole MIC with 2.5 mg/L nisin",2 µg/mL
same,MIC,"MRSA; Table 4, strain LF13, agents singly or miconazole MIC with 2.5 mg/L nisin",2 µg/mL
same,MIC,"MRSA; Table 4, strain LF14, agents singly or miconazole MIC with 2.5 mg/L nisin",2 µg/mL
same,MIC,"MRSA; Table 4, strain LF15, agents singly or miconazole MIC with 2.5 mg/L nisin",2 µg/mL
same,MIC,"MRSA; Table 4, strain LF16, agents singly or miconazole MIC with 2.5 mg/L nisin",2 µg/mL
same,MIC,"MRSA; Table 4, strain LF17, agents singly or miconazole MIC with 2.5 mg/L nisin",2 µg/mL
same,MIC,"MRSA; Table 4, strain LF18, agents singly or miconazole MIC with 2.5 mg/L nisin",1 µg/mL
same,MIC,"MRSA; Table 4, strain LF19, agents singly or miconazole MIC with 2.5 mg/L nisin",2 µg/mL
same,MIC,"MRSA; Table 4, strain PF 15a 009521M ST22 EMRSA, agents singly or miconazole MIC with 2.5 mg/L nisin",1 µg/mL
same,MIC,"MRSA; Table 4, strain PF 16a 00923R EMRSA 16, agents singly or miconazole MIC with 2.5 mg/L nisin",2 µg/mL
same,MIC,"MRSA; Table 4, strain PF 99b 983237K BERIAN CLONE, agents singly or miconazole MIC with 2.5 mg/L nisin",2 µg/mL
same,MIC,"MRSA; Table 4, strain PF 116a 981695K, agents singly or miconazole MIC with 2.5 mg/L nisin",2 µg/mL
same,MIC,"MRSA; Table 4, strain PF 153a 026225E, agents singly or miconazole MIC with 2.5 mg/L nisin",0.5 µg/mL
same,MIC,"MRSA; Table 4, strain S113 MRSA, agents singly or miconazole MIC with 2.5 mg/L nisin",2 µg/mL
same,MIC,"VISA; Table 4, strain Mu3ex Japan, agents singly or miconazole MIC with 2.5 mg/L nisin",2 µg/mL
same,MIC,"VISA; Table 4, strain Mu50ex Japan, agents singly or miconazole MIC with 2.5 mg/L nisin",1 µg/mL
same,MIC,"VISA; Table 4, strain USA/VISA 5827, agents singly or miconazole MIC with 2.5 mg/L nisin",2 µg/mL
same,MIC,"VISA; Table 4, strain USA/VISA 5836, agents singly or miconazole MIC with 2.5 mg/L nisin",4 µg/mL
same,MIC,"VISA; Table 4, strain VISA 3900 UK, agents singly or miconazole MIC with 2.5 mg/L nisin",2 µg/mL
same,MIC,[2],1 µg/mL
